Measurements: publication PMC7211193, “Evaluation of absorption, distribution, metabolism, and excretion of [^14C]-rucaparib, a poly(ADP-ribose) polymerase inhibitor, in patients with advanced solid tumors” (Investigational New Drugs, 2019)

Columns and labels:
[1] = Mass balance: recovery of radioactivity in urine and feces; format: in vivo, human
Protocol: Six patients received a single oral dose of [^14C]-rucaparib 600 mg (approximately 5.18 MBq or 140 μCi) on day 1 after fasting for 10 h and were confined at the study site for the collection of blood samples and excreta for a maximum of 12 days.
For the purposes of the mass balance study and metabolite profiling, urine and fecal samples were collected during predetermined intervals. Urine was collected at time 0 (predose), 0–6, 6–12, and 12–24 h, and daily per 24-h interval from day 2 to day 12. Urine was collected in 3-L polyethylene containers and stored at 4 °C for the duration of the collection period. After each collection period, urine samples were mixed thoroughly, weighed, portioned into aliquots in polypropylene tubes, and then frozen at or below −70 °C until metabolite profiling and TRA analyses by LSC. Feces were collected daily in 24-h intervals from predose to day 12. Feces collections were kept at or below −20 °C. Sample pretreatment involved diluting and homogenizing the feces by adding water (1–2 weight equivalents). An Ultra-Turrax mixer (IKA, Staufen im Breisgau, Germany) was used to homogenize the samples before aliquoting. Separate aliquots of fecal homogenate were transferred to polypropylene tubes. Aliquots for radioactivity measurement by LSC were stored at or below −20 °C until analysis, whereas aliquots for metabolite profiling were stored at −70 °C until analysis.
Patients 01, 05, and 09 were confined to the study site for sample collections for 12 days, but Patients 03, 06, and 08 were discharged earlier per protocol because cumulative recovery of radioactivity from these patients exceeded 90% of the administered dose or the radioactivity in urine and feces was <1% of the administered dose over a 24-h period on 2 consecutive days.
TRA analysis was performed on a Liquid Scintillation Counter Tri-Carb Model 3100TR (PerkinElmer). Aliquots of blood (300 μL), plasma (250 μL), and urine (1 mL) were transferred to scintillation vials. Blood samples were incubated at ≥60 °C with SOLVABLE (1 mL). After cooling to room temperature, EDTA (0.1 M, 100 μL) and hydrogen peroxide (225 μL) were added to dissolve blood cells, reduce foaming, and decrease color intensity. Finally, after incubation at ≥45 °C and ≥60 °C, Ultima Gold (≥5-fold) was added, and the samples were analyzed with LSC. For urine samples, Ultima Gold (≥5-fold) was added, and the samples were analyzed with LSC.
Fecal samples were processed further and combusted before LSC analyses. Aliquots (≈500 mg) of the fecal homogenates were dried in an oven (50 °C). Combustaid (100 μL) was added to the dry homogenates and the sample was combusted in a Sample Oxidizer Model 307 (PerkinElmer). Carbo-Sorb E (7 mL) was used as an absorber agent for the [^14C]-carbon dioxide that was generated during combustion. At the end of the combustion cycle, the absorber was mixed with 13 mL of the scintillant PermaFluor E. After combustion, TRA of fecal aliquots was determined by LSC as described for urine samples.
For the vomit sample collected from Patient 01 (clear vomitus) the urine method was used, and for Patient 05 (not clear vomitus) the feces method was used.

[2] = Metabolite identification by LC-MS/MS in plasma, urine and feces; format: in vivo, human; conditions: F feces, P plasma, U urine
Protocol: Metabolite profiling and identification were performed on an LC system (Agilent) coupled to an LTQ Orbitrap mass spectrometer (Thermo Electron, Waltham, MA, USA) in combination with offline TopCount (LC-MS-TopCount) or online Radiomatic 625TR (LC-MS-Radiomatic; PerkinElmer). Proposed structures of the metabolites were based on accurate mass (<5 ppm) and comparison of mass spectral data of parent compound rucaparib and metabolite standard M324. The Radiomatic 625TR flow detector, equipped with a 200 μL flow cell, was operated using scintillation cocktail (Ultima-Flo M) delivered at a flow rate of 1 mL/min. Chromatography was done using a Phenomenex (Torrance, CA, USA) Luna Phenyl-Hexyl column (250 × 2 mm, 5 μm, 100 Å) at ambient temperature during the sample analysis. The mobile phase was (A) 0.05% TFA in water and (B) 0.05% TFA in acetonitrile, with a 0.2 mL/min flow rate. The gradient was as follows: 5% B over 2.1 min, to 20% B in 1.0 min, to 35% B in 16.9 min, isocratic at 35% B for 5 min, to 95% B over 5 min, and reduced to 5% B over 1 min, with total run time 45 min.
The LTQ Orbitrap mass spectrometer was equipped with an electrospray ionization interface and operated in positive ionization mode for metabolite profiling and identification. Mass spectra were acquired in full scan (MS) (m/z 150–1500) and data-dependent scan modes. Mass spectrometer parameter settings were: spray voltage, +5.0 kV; capillary temperature, 350 °C; sheath gas, 80 (arbitrary unit); auxiliary gas, 30 (arbitrary unit); activation Q, 0.25; activation time, 30 msec; resolution, 7500; and collision energy, 35 eV.
The structures of the metabolites were identified by LC-MS/MS based on comparisons of mass spectral fragmentation patterns with those produced by the parent compound. Further confirmation of the identities of the metabolites was based on the elemental composition determined from accurate mass analyses using an Orbitrap high-resolution mass spectrometer.
The structures of the major metabolites found in plasma, urine, and feces were also confirmed by comparisons with the synthetic reference standard M324.

[3] = within 12 days post dose, mean ± SD, N = 6

CNCc1ccc(-c2[nH]c3cc(F)cc4c3c2CCNC4=O)cc1 [Rucaparib, rucaparib]
Cumulative recovery of the actual dose, Patient 01 ([1]; Patient 01, dose corrected for loss by vomiting): 86.5% | Dose recovery in feces, patient who lost 0.03% of dose by vomiting ([1]; Patient 05): 62.2% | Dose recovery in urine, patient who lost 0.03% of dose by vomiting ([1]; Patient 05): 10.9% | Cumulative dose recovery, patient who lost 0.03% of dose by vomiting (lowest recovery) ([1]; Patient 05, urine plus feces): 73.1% | bioavailability ([1]; human, urine and feces, po, 600 mg, radioactivity in urine plus radioactivity recovered as metabolites in feces, read-out: Oral bioavailability suggested by the current study): ≥ 21% | Time by which 90% of the observed urinary recovery was achieved ([1]; post dose): ≤ 120 h | Time within which 90% of the observed fecal recovery was found ([1]; post dose): ≤ 168 h | Recovery of administered radioactive dose in feces [1, 3]: 71.9% | Recovery of administered radioactive dose in urine [1, 3]: 17.4% | Total recovery of administered radioactive dose in excreta [1, 3]: 89.3% | Matrix in which identified [2]: P, U, F
